# From publication PMC9527238, “Glutamate and GABAA receptor crosstalk mediates homeostatic regulation of neuronal excitation in the mammalian brain” (Signal Transduction and Targeted Therapy, 2022)
# Legend:
# [1] = target: T1, rat α1β2γ2 GABAARs (Rattus norvegicus, UniProt P62813+P63138); test: Whole-cell patch clamp of GABA-evoked currents, HEK293 cells expressing wild-type α1β2γ2; type: cell-based
# T1 construct: expressed in transfected cells; host or cells: HEK293
# Description: Co-expression of the α and β subunits is the minimum requirement for a functional recombinant GABAAR expressed in a heterologous cell line such as HEK293, while co-expression of the α, β and γ subunits is required for the recombinant receptor with a full pharmacological profile.[2] We therefore transiently expressed either rat α1β2 or α1β2γ2 subunits in HEK293 cells.
# (§1) HEK293 cells were cultured in DMEM (Invitrogen) supplemented with 10% fetal bovine serum. Cells were grown to 40–60% confluence and transiently transfected using Lipofectamine 2000 (Invitrogen) with 1:0.5–1 plasmid/lipid ratio. Cells were transfected with a pBK-CMV expression vector containing a rat recombinant GABAAR α, β or γ subunits. Co-transections were done with a plasmid ratio of 1:1 αβ and 2:2:1 for αβγ subunit combinations, respectively. pcDNA3.1-GFP was also co-transfected along with GABAAR subunits as a transfected marker in order to facilitate the visualization of the transfected cells during electrophysiological experiments. Cells were re-plated on glass coverslips after 15–20 h transfection and were cultured for an additional 15–24 h before whole-cell patch-clamp recordings.
# Whole-cell patch-clamp recordings were performed under voltage-clamp mode using an Axopatch 200B or 1D patch-clamp amplifier (Molecular Devices) on HEK293 cells and cultured neurons. Whole-cell currents were recorded at a holding potential of −60 mV, and signals were filtered at 2 kHz, digitized at 10 kHz (Digidata 1322 A). Recording pipettes (3–5 MΩ) were filled with the intracellular solution that contained (mM): CsCl 140, HEPES 10, Mg-ATP 4, QX-314 5, pH 7.20; osmolarity, 290–295 mOsm. BAPTA (10 mM) was added in the intracellular solution. The coverslips were continuously superfused with the extracellular solution containing (mM): NaCl 140, KCl 5.4, HEPES 10, MgCl2 1.0, CaCl2 1.3, glucose 20, pH 7.4; osmolarity, 305–315 mOsm. […] Dose–response curves were created by fitting data to Hill equation: I = Imax/[1 + (EC50/[A])^n], where I is the current, Imax is the maximum current, [A] is a given concentration of agonist, n is the Hill coefficient. […] All experiments were performed at room temperature.
# [2] = target: T2, α1β2 GABAARs (Rattus norvegicus, UniProt P62813+P63138); test: [3H]glutamate binding assay, plasma membranes of HEK293 cells overexpressing α1 and β2; conditions: 40 nM [3H]glutamate + 0.4 mM non-radiolabeled competitor
# T2 construct: expressed in transfected cells; host or cells: HEK293
# Description: For membrane preparation, transfected or non-transfected HEK293 cells were washed twice with cold PBS and harvested by scraping into 5 ml cold PBS. Cells were then centrifuged at 1200 × g for 12 min at 4 °C and medium was removed. The washing procedure was repeated twice. Then the cell pellet was re-suspended into 1 ml of 50 mM Tris-HCl buffer (pH 7.4, with protease inhibitor) and homogenized using syringes with 18-G, 21-G and 23-G needles.
# To separate the membrane, the homogenate were centrifuged for 20 min at 20,000 × g at 4 °C. Then the pellet was re-suspended into 1 ml of 50 mM Tris-HCl buffer, pH 7.4 and centrifuged again. After repeating this procedure for one more time, the pellet was re-suspended into 1 ml of 50 mM Tris-HCl buffer, pH 7.4 and the protein concentration was measured.
# To conduct the binding assay, 100 µg membrane enriched preparation was incubated with 40 nM [3H]-Glutamate in a total volume of 0.5 ml in 50 mM Tris-HCl buffer, pH 7.4 for 1 h on ice. […] Then the reaction was terminated by quickly filtering the solution on Whatman filter paper and washing by 3.5 ml Tris-HCl buffer. Radioactivity was measured in a Beckman liquid scintillation counter.
# [3] = target: T3, α1K155Dβ2γ2E168K GABAAR (Rattus norvegicus, UniProt P18508+P62813+P63138, E206K/K182D); test: Patch clamp, HEK293, mutant GABAAR; type: cell-based
# T3 construct: expressed in transfected cells; host or cells: HEK293
# Description: as §1
# (§2) The site-directed mutagenesis of α, β or γ subunits were performed by using the QuikChange method (Stratagene). […] Wild-type or mutant subunits were transfected in HEK293 cells and subjected to electrophysiology examinations.
# (§3) Whole-cell patch-clamp recordings were performed under voltage-clamp mode using an Axopatch 200B or 1D patch-clamp amplifier (Molecular Devices) on HEK293 cells and cultured neurons. Whole-cell currents were recorded at a holding potential of −60 mV, and signals were filtered at 2 kHz, digitized at 10 kHz (Digidata 1322 A). Recording pipettes (3–5 MΩ) were filled with the intracellular solution that contained (mM): CsCl 140, HEPES 10, Mg-ATP 4, QX-314 5, pH 7.20; osmolarity, 290–295 mOsm. BAPTA (10 mM) was added in the intracellular solution. The coverslips were continuously superfused with the extracellular solution containing (mM): NaCl 140, KCl 5.4, HEPES 10, MgCl2 1.0, CaCl2 1.3, glucose 20, pH 7.4; osmolarity, 305–315 mOsm.
# [4] = target: T4, α1β2E181Gγ2 GABAAR with γ2 R197E mutation (Rattus norvegicus, UniProt P18508+P62813+P63138, E206G/R235E); test: Patch clamp, HEK293, mutant GABAAR; type: cell-based
# T4 construct: expressed in transfected cells; host or cells: HEK293
# Description: as §1, §2, §3
# [5] = target: T5, αK104D,E137Gβ GABAAR (Rattus norvegicus, UniProt P62813+P63138, E164G/K131D); test: Patch clamp, HEK293, double mutant α1β2 GABAAR; type: cell-based; conditions: HEK293, read-out: Glutamate potentiation of GABA currents, % of control, normalized to wild-type α1β2
# T5 construct: expressed in transfected cells; host or cells: HEK293
# From the text: The subunits are color-coded individually. The boxed regions are further enlarged in the middle panels, highlighting the predicted glutamate binding pocket in the α+ and β− interface, just below the loop C. […] Relative potentiation was obtained by normalizing potentiation observed in the mutated receptor to that in the respective wild-type receptor.
# To further investigate the characteristics of these four residues, double amino acid substitutions were introduced at residue pairs that are located at different (α1β2) subunits (Fig. 3f and Supplementary Fig. S6b).
# as §1, §2
# as §3, with “solution.” for “solution. The coverslips were continuously superfused with the extracellular solution containing (mM): NaCl 140, KCl 5.4, HEPES 10, MgCl2 1.0, CaCl2 1.3, glucose 20, pH 7.4; osmolarity, 305–315 mOsm.”
structure (smiles),measurement,setting,value
"N[C@@H](CCC(=O)O)C(=O)O [glutamate, Glutamate]","GABA currents in presence of ligand, compared with GABA alone",[1],169.3 ± 6.9%
same,Relative potentiation,[1],100.0%
same,[3H]glutamate binding activity in presence of competitor,[2],262.2 ± 47.8 CPM
same,"restored potentiation, % of wild-type α1β2γ2",[3]; 100 μM glutamate,71.8 ± 14.7%
same,"restored potentiation, % of wild-type α1β2γ2",[3]; 1 mM glutamate,76.4 ± 10%
same,"restored potentiation, % of wild-type α1β2γ2",[4]; Glu 100 μM,76.6 ± 10.4%
same,"restored potentiation, % of wild-type α1β2γ2",[4]; Glu 1 mM,84.5 ± 16.9%
same,activity at 100 µM,[5]; glutamate 100 μM,17.3 ± 12.9%
same,activity at 1000 µM,[5]; glutamate 1 mM,45.9 ± 20.9%
